From patent US9012413B2, “FGF receptor-activating N-acyl octasaccharides, preparation thereof, and therapeutic use thereof” (Sanofi, priority 2009, dated 2015)

Tests used:
BALB/c J mice = assay: Model of cellulose implant in mice (haemoglobin concentration in the implant, angiogenesis); type: in vivo
Protocol: This model is an adaptation of the model described by Andrade et al. (Microvascular Research, 1997, 54, 253-61) for testing pharmacological products capable of activating the onset of angiogenesis.
The animals (white consanguineous BALB/c J mice) are anaesthetized with a xylazine (Rompun®, 10 mg/kg)/ketamine (Imalgene® 1000, 100 mg/kg) mixture intraperitoneally. The animal's back is shaved and disinfected with Hexomedine®. An air pocket is created subcutaneously on the mouse's back by injecting 5 ml of sterile air. An incision of about 2 cm at the top of the animal's back is made in order to introduce a sterile cellulose implant (disk 1 cm in diameter, 2 mm thick, Cellspon® ref. 0501) impregnated with 50 μl of sterile solution containing the test product. […]
Seven days after inserting the sponge, the mice are sacrificed by means of a lethal dose of pentobarbital sodium (CEVA Santé Animale), administered intraperitoneally. […] On the day of the assay, the tubes are again centrifuged after thawing and the haemoglobin concentration is measured with the Drabkin reagent (Sigma, volume for volume) by reading on a spectrophotometer at 405 nm against a standard range of bovine haemoglobin (Sigma).
The haemoglobin concentration in each sample is expressed in mg/ml from the polynomial regression produced from the range. The results are expressed as a mean value (±sem) for each group. […]

[1] = Pharmacokinetics after cutaneous administration to mice, plasma LC/MS-MS; type: in vivo; conditions: OF1 or C57/BL6 mice, 30 mg/kg, single administration
Protocol: The pharmacokinetic profile of the compounds according to the invention is evaluated after cutaneous administration, to OF1 or C57/BL6 mice, at a concentration of 30 mg/kg. The systemic exposure of the compounds is evaluated after a single administration to the animal anaesthetized beforehand with pentobarbital. The blood is collected from the vena cava and then transferred into plastic tubes containing lithium heparin. After centrifugation (2000×g for 10 minutes at 8° C.), the concentration of the compounds in the plasma is quantified by LC/MS-MS.

## Methyl (sodium 2-O-sodium sulfonato-α-L-idopyranosyluronate)-(1→4)-(2-acetamido-2-deoxy-6-O-sodium sulfonato-α-D-glucopyranosyl)-[(1→4)-(sodium 2-O-sodium sulfonato-α-L-idopyranosyluronate)-(1→4)-(2-acetamido-2-deoxy-6-O-sodium sulfonato-α-D-glucopyranosyl)]2-(1→4)-(sodium 2-O-sodium sulfonato-α-L-idopyranosyluronate)-(1→4)-2-acetamido-2-deoxy-6-O-sodium sulfonato-α-D-glucopyranoside [Compound 7]
BALB/c J mice; BALB/c J mice, subcutaneous cellulose implant, haemoglobin assay after seven days
  specific activity in the cellulose implant model (active at): 15 ng/site
BALB/c J mice; cellulose implant in mice
  activity relative to the fully sulfated analogue (all —NH-acyl groups replaced with —NH—SO3— groups): greater than 21%
[1]; plasma
  AUC (0-Clast): 22 000 ng · h/mL
  T1/2: 24 min
[1]; plasma at 4 hours
  Plasma conc., t = 4 h: 0.425 µg/mL
